Laboratory results taken from ChEMBL document CHEMBL1151200, “Comparison of fascaplysin and related alkaloids: a study of structures, cytotoxicities, and sources” (J Nat Prod, 2004).

Experiments:
A549 = assay: Antitumor activity against human A549/ATCC cells; assay type: functional, cell-based
EKVX = assay: Antitumor activity against human EKVX cells; assay type: functional, cell-based
HOP-62 = assay: Antitumor activity against human HOP62 cells; assay type: functional, cell-based
NCI-H226 = assay: Antitumor activity against human NCI-H226 cells; assay type: functional, cell-based
NCI-H23 = assay: Antitumor activity against human NCI-H23 cells; assay type: functional, cell-based
NCI-H322M = assay: Antitumor activity against human NCI-H322M cells; assay type: functional, cell-based
NCI-H460 = assay: Antitumor activity against human NCI-H460 cells; assay type: functional, cell-based
NCI-H522 = assay: Antitumor activity against human NCI-H522 cells; assay type: functional, cell-based
COLO 205 = assay: Antitumor activity against human COLO205 cells; assay type: functional, cell-based
HCC 2998 = assay: Antitumor activity against human HCC2998 cells; assay type: functional, cell-based
HCT-116 = assay: Antitumor activity against human HCT116 cells; assay type: functional, cell-based
HCT-15 = assay: Antitumor activity against human HCT15 cells; assay type: functional, cell-based
HT-29 = assay: Antitumor activity against human HT-29 cells; assay type: functional, cell-based
KM12 = assay: Antitumor activity against human KM12 cells; assay type: functional, cell-based
SW-620 = assay: Antitumor activity against human SW620 cells; assay type: functional, cell-based
SF-268 = assay: Antitumor activity against human SF268 cells; assay type: functional, cell-based
SF-295 = assay: Antitumor activity against human SF295 cells; assay type: functional, cell-based
SF-539 = assay: Antitumor activity against human SF539 cells; assay type: functional, cell-based
SNB-19 = assay: Antitumor activity against human SNB19 cells; assay type: functional, cell-based
SNB-75 = assay: Antitumor activity against human SNB75 cells; assay type: functional, cell-based
U-251 = assay: Antitumor activity against human U251 cells; assay type: functional, cell-based
LOX IMVI = assay: Antitumor activity against human LOXIMVI cells; assay type: functional, cell-based
Malme-3M = assay: Antitumor activity against human MALME-3M cells; assay type: functional, cell-based
M14 = assay: Antitumor activity against human M14 cells; assay type: functional, cell-based
SK-MEL-28 = assay: Antitumor activity against human SK-MEL-28 cells; assay type: functional, cell-based
SK-MEL-5 = assay: Antitumor activity against human SK-MEL-5 cells; assay type: functional, cell-based
UACC-257 = assay: Antitumor activity against human UACC257 cells; assay type: functional, cell-based
UACC-62 = assay: Antitumor activity against human UACC62 cells; assay type: functional, cell-based
IGROV-1 = assay: Antitumor activity against human IGROV1 cells; assay type: functional, cell-based
OVCAR-3 = assay: Antitumor activity against human OVCAR-3 cells; assay type: functional, cell-based
OVCAR-4 = assay: Antitumor activity against human OVCAR4 cells; assay type: functional, cell-based
OVCAR-5 = assay: Antitumor activity against human OVCAR5 cells; assay type: functional, cell-based
OVCAR-8 = assay: Antitumor activity against human OVCAR8 cells; assay type: functional, cell-based
SK-OV-3 = assay: Antitumor activity against human SKOV3 cells; assay type: functional, cell-based
[1] = Antitumor activity against human 786-O cells; assay type: functional, cell-based; conditions: 786-0
A498 = assay: Antitumor activity against human A498 cells; assay type: functional, cell-based
ACHN = assay: Antitumor activity against human ACHN cells; assay type: functional, cell-based
CAKI-1 = assay: Antitumor activity against human Caki1 cells; assay type: functional, cell-based
RXF 393 = assay: Antitumor activity against human RXF393 cells; assay type: functional, cell-based
SN12C = assay: Antitumor activity against human SN12C cells; assay type: functional, cell-based
TK-10 = assay: Antitumor activity against human TK10 cells; assay type: functional, cell-based
UO-31 = assay: Antitumor activity against human UO31 cells; assay type: functional, cell-based
PC-3 = assay: Antitumor activity against human PC3 cells; assay type: functional, cell-based
DU-145 = assay: Antitumor activity against human DU145 cells; assay type: functional, cell-based
MCF7 [2] = assay: Antitumor activity against human MCF7 cells; assay type: functional, cell-based
MCF7 [3] = assay: Antitumor activity against […] human MCF7 cells; assay type: functional, cell-based
MDA-MB-231 = assay: Antitumor activity against human MDA-MB-231 cells; assay type: functional, cell-based
[4] = Antitumor activity against human Hs 578T cells; assay type: functional, cell-based
MDA-MB-435 = assay: Antitumor activity against human MDA-MB-435 cells; assay type: functional, cell-based
MDA-N = assay: Antitumor activity against human MDA-N cells; assay type: functional, cell-based
BT-549 = assay: Antitumor activity against human BT549 cells; assay type: functional, cell-based
T47D = assay: Antitumor activity against human T47D cells; assay type: functional, cell-based
L1210 = assay: Cytotoxicity against mouse L1210 cells at 0.4 ug/disk by disk diffusion soft agar colony formation assay; assay type: functional
MC-38 = assay: Cytotoxicity against mouse C38 cells at 0.4 ug/disk by disk diffusion soft agar colony formation assay; assay type: functional
[5] = Cytotoxicity against mouse CFU-GM cells at 0.4 ug/disk by disk diffusion soft agar colony formation assay; assay type: cell-based
[6] = Cytotoxicity against human H116 cells at 0.4 ug/disk by disk diffusion soft agar colony formation assay; assay type: functional
[7] = Cytotoxicity against human H125 cells at 0.4 ug/disk by disk diffusion soft agar colony formation assay; assay type: functional
CCRF-CEM [8] = assay: Cytotoxicity against human CEM cells at 0.4 ug/disk by disk diffusion soft agar colony formation assay; assay type: functional
CCRF-CEM [9] = assay: Antitumor activity against human CCRF-CEM cells; assay type: functional, cell-based
HL-60(TB) = assay: Antitumor activity against human HL-60(TB) cells; assay type: functional, cell-based
K562 = assay: Antitumor activity against human K562 cells; assay type: functional, cell-based
MOLT-4 = assay: Antitumor activity against human MOLT4 cells; assay type: functional, cell-based
RPMI-8226 = assay: Antitumor activity against human RPMI8226 cells; assay type: functional, cell-based
SR = assay: Antitumor activity against human SR cells; assay type: functional, cell-based

O=C1c2ccccc2-[n+]2ccc3c([nH]c4ccccc43)c21.[Cl-] [FASCAPLYSIN CHLORIDE]
IC50 (A549): 4.2 µM | IC50 (EKVX): 5.1 µM | IC50 (HOP-62): 4.7 µM | IC50 (NCI-H226): 9.6 µM | IC50 (NCI-H23): 4.5 µM | IC50 (NCI-H322M): 5 µM | IC50 (NCI-H460): 4.2 µM | IC50 (NCI-H522): 4.5 µM | IC50 (COLO 205): 1.2 µM | IC50 (HCC 2998): 1.7 µM | IC50 (HCT-116): 0.6 µM | IC50 (HCT-15): > 10 µM | IC50 (HT-29): > 10 µM | IC50 (KM12): 4.6 µM | IC50 (SW-620): 3.7 µM | IC50 (SF-268): > 10 µM | IC50 (SF-295): 3.9 µM | IC50 (SF-539): 4.2 µM | IC50 (SNB-19): 6.1 µM | IC50 (SNB-75): 5.4 µM | IC50 (U-251): 3.6 µM | IC50 (LOX IMVI): > 10 µM | IC50 (Malme-3M): 0.36 µM | IC50 (M14): 0.92 µM | IC50 (SK-MEL-28): 9.3 µM | IC50 (SK-MEL-5): 2 µM | IC50 (UACC-257): > 10 µM | IC50 (UACC-62): 4.9 µM | IC50 (IGROV-1): 4.5 µM | IC50 (OVCAR-3): 1.5 µM | IC50 (OVCAR-4): 5.3 µM | IC50 (OVCAR-5): 4.4 µM | IC50 (OVCAR-8): > 10 µM | IC50 (SK-OV-3): > 10 µM | IC50 [1]: 6.7 µM | IC50 (A498): 5.2 µM | IC50 (ACHN): > 10 µM | IC50 (CAKI-1): 6.1 µM | IC50 (RXF 393): 3.5 µM | IC50 (SN12C): 4.2 µM | IC50 (TK-10): 5.4 µM | IC50 (UO-31): > 10 µM | IC50 (PC-3): > 10 µM | IC50 (DU-145): 4.9 µM | IC50 (MCF7 [2]): > 10 µM | IC50 (MCF7 [3]): > 10 µM | IC50 (MDA-MB-231): > 10 µM | IC50 [4]: > 10 µM | IC50 (MDA-MB-435): 0.56 µM | IC50 (MDA-N): 0.56 µM | IC50 (BT-549): > 10 µM | IC50 (T47D): > 10 µM | Activity (L1210): 400 Zone units | Activity (MC-38): 500 Zone units | Activity [5]: 200 Zone units | Activity [6]: 500 Zone units | Activity [7]: 400 Zone units | Activity (CCRF-CEM [8]): 300 Zone units | IC50 (CCRF-CEM [9]): > 10 µM | IC50 (HL-60(TB)): > 10 µM | IC50 (K562): > 10 µM | IC50 (MOLT-4): > 10 µM | IC50 (RPMI-8226): > 10 µM | IC50 (SR): > 10 µM
